In BigSolDB 2.1:

Which solubility (mole fraction) (in 1,4-dioxane, 293.15 K) does the source give for `Cl.NC1CCSC1=O` (racemic) here?
Its solubility (mole fraction) is 0.0005.

What about the solubility (mole fraction) (in 1,4-dioxane, 303.15 K) of the same molecule?
The solubility (mole fraction) was 0.000691.

What about the solubility (mole fraction) (in 1,4-dioxane, 308.15 K) of the same molecule?
Its solubility (mole fraction) is 0.000783.

What about the solubility (mole fraction) (in 1,4-dioxane, 313.15 K) of the same molecule?
The solubility (mole fraction) was 0.000872.

What about the solubility (mole fraction) (in 1,4-dioxane, 323.15 K) of the same molecule?
The solubility (mole fraction) was 0.000995.

What about the solubility (mole fraction) (in 2-butanone, 283.15 K) of the same molecule?
The solubility (mole fraction) was 0.000125.

What about the solubility (mole fraction) (in 2-butanone, 293.15 K) of the same molecule?
The solubility (mole fraction) was 0.00021.

What about the solubility (mole fraction) (in 2-butanone, 303.15 K) of the same molecule?
Its solubility (mole fraction) is 0.000307.

What about the solubility (mole fraction) (in 2-butanone, 313.15 K) of the same molecule?
The solubility (mole fraction) was 0.000361.

What about the solubility (mole fraction) (in 2-butanone, 323.15 K) of the same molecule?
Its solubility (mole fraction) is 0.000431.

What about the solubility (mole fraction) (in acetone, 283.15 K) of the same molecule?
Its solubility (mole fraction) is 0.000115.

What about the solubility (mole fraction) (in acetone, 293.15 K) of the same molecule?
Its solubility (mole fraction) is 0.000202.

And the solubility (mole fraction) (in acetone, 303.15 K)?
The solubility (mole fraction) was 0.00026.

And the solubility (mole fraction) (in acetone, 313.15 K)?
Its solubility (mole fraction) is 0.000331.

And the solubility (mole fraction) (in acetone, 323.15 K)?
The solubility (mole fraction) was 0.000439.

What about the solubility (mole fraction) (in acetonitrile, 283.15 K) of the same molecule?
Its solubility (mole fraction) is 4.5e-05.

And the solubility (mole fraction) (in acetonitrile, 293.15 K)?
Its solubility (mole fraction) is 8.7e-05.

What about the solubility (mole fraction) (in acetonitrile, 303.15 K) of the same molecule?
Its solubility (mole fraction) is 0.000135.

And the solubility (mole fraction) (in acetonitrile, 313.15 K)?
Its solubility (mole fraction) is 0.000175.

What about the solubility (mole fraction) (in acetonitrile, 323.15 K) of the same molecule?
Its solubility (mole fraction) is 0.000212.

What about the solubility (mole fraction) (in dichloromethane, 283.15 K) of the same molecule?
Its solubility (mole fraction) is 6.4e-05.

What about the solubility (mole fraction) (in dichloromethane, 288.15 K) of the same molecule?
Its solubility (mole fraction) is 0.000114.

And the solubility (mole fraction) (in dichloromethane, 293.15 K)?
Its solubility (mole fraction) is 0.000171.

And the solubility (mole fraction) (in dichloromethane, 298.15 K)?
The solubility (mole fraction) was 0.000262.

And the solubility (mole fraction) (in dichloromethane, 303.15 K)?
Its solubility (mole fraction) is 0.000356.

And the solubility (mole fraction) (in ethanol, 283.15 K)?
Its solubility (mole fraction) is 0.00319.

What about the solubility (mole fraction) (in ethanol, 293.15 K) of the same molecule?
Its solubility (mole fraction) is 0.00413.

What about the solubility (mole fraction) (in ethanol, 303.15 K) of the same molecule?
Its solubility (mole fraction) is 0.00509.

And the solubility (mole fraction) (in ethanol, 313.15 K)?
Its solubility (mole fraction) is 0.00627.

What about the solubility (mole fraction) (in ethanol, 323.15 K) of the same molecule?
The solubility (mole fraction) was 0.00766.

What about the solubility (mole fraction) (in ethyl acetate, 283.15 K) of the same molecule?
The solubility (mole fraction) was 0.000238.

What about the solubility (mole fraction) (in ethyl acetate, 293.15 K) of the same molecule?
Its solubility (mole fraction) is 0.000281.

And the solubility (mole fraction) (in ethyl acetate, 303.15 K)?
Its solubility (mole fraction) is 0.000342.

What about the solubility (mole fraction) (in ethyl acetate, 313.15 K) of the same molecule?
The solubility (mole fraction) was 0.000385.

What about the solubility (mole fraction) (in ethyl acetate, 323.15 K) of the same molecule?
The solubility (mole fraction) was 0.000458.

What about the solubility (mole fraction) (in isopropanol, 283.15 K) of the same molecule?
Its solubility (mole fraction) is 0.000521.

And the solubility (mole fraction) (in isopropanol, 293.15 K)?
Its solubility (mole fraction) is 0.000786.

And the solubility (mole fraction) (in isopropanol, 303.15 K)?
Its solubility (mole fraction) is 0.00116.

What about the solubility (mole fraction) (in isopropanol, 313.15 K) of the same molecule?
Its solubility (mole fraction) is 0.00154.

What about the solubility (mole fraction) (in isopropanol, 323.15 K) of the same molecule?
Its solubility (mole fraction) is 0.00187.

What about the solubility (mole fraction) (in methanol, 283.15 K) of the same molecule?
The solubility (mole fraction) was 0.0154.

And the solubility (mole fraction) (in methanol, 293.15 K)?
The solubility (mole fraction) was 0.0187.

What about the solubility (mole fraction) (in methanol, 303.15 K) of the same molecule?
The solubility (mole fraction) was 0.0226.

And the solubility (mole fraction) (in methanol, 313.15 K)?
The solubility (mole fraction) was 0.0272.

What about the solubility (mole fraction) (in methanol, 323.15 K) of the same molecule?
The solubility (mole fraction) was 0.0326.
